Experimental data as given in patent US11744808B2, “Compositions and methods for treating non-alcoholic steatohepatitis” (ALGERNON PHARMACEUTICALS INC., priority 2018, dated 2023).

Assays:
[1] = test system: murine STAM™ model of NASH-HCC; assay: Murine STAM model of NASH-HCC, first study (Example 1): H&E NAFLD activity scoring and Sirius red fibrosis area; type: in vivo, C57BL/6 mice; conditions: for hepatocellular ballooning score relative to Vehicle control / NAFLD activity score relative to Vehicle control / fibrosis area (Sirius red-positive area) compared with the Vehicle group: once daily oral, 6 to 9 weeks of age, Bromantane 20 mg/kg, Istradefylline 18 mg/kg; for hepatocellular ballooning score relative to Vehicle control: Irsogladine 1 mg/kg; for NAFLD activity score relative to Vehicle control / fibrosis area (Sirius red-positive area) compared with the Vehicle group: Telmisartan 10 mg/kg
Experimental: Male newborn C57BL/6 mice were used. All mice were born from pathogen-free 14 day-pregnant mice obtained from Japan SLC, Inc. (Hamamatsu, Japan) prior to the start of the study.
(§1) The murine STAM™ model of NASH-HCC was performed according to previously described methods known in the art (Takakura et al, Characterization of non-alcoholic steatohepatitis, Anticancer Res, 34(9):4849-55 (2014); Fujii et al, (2013)). NASH was induced in male mice by a single subcutaneous injection of 200 μg of streptozotocin (STZ, Sigma, Mo., USA) at 2 days after birth and continuous feeding after 4 weeks of age (day 28±2) with a high fat diet (CLEA Japan Inc, Tokyo, Japan) given ad libitum.
Following induction of NASH, the mice were randomized into 12 individual study groups of 8 mice each at 6 weeks of age (day 42±2) based on body weight, the day before the start of treatment.
One day following randomization, the mice were administered a once-daily oral treatment from 6 weeks of age plus one day (day 43±2, treatment Day 1) to 9 weeks of age (hereinafter known as the “treatment period”). The mice in 11 of the 12 study groups (hereafter known as “treatment groups”) were treated individually with a distinct pharmacologic compound formulated with a pharmaceutically acceptable vehicle. […] The pharmaceutically acceptable vehicle in all groups was 0.5% carboxymethyl cellulose (CMC). […] Individual body weight was measured daily during the treatment period. Survival, clinical signs and behavior of mice were also monitored daily.
In each case, a volume of 10 mL/kg of 0.5% CMC was administered orally with (or without) the active ingredient as noted in Table 1 from 6 to 9 weeks of age until sacrifice. One exception being Trapadil, which was administered orally with one dosing of 120 mg/kg on Day 0 and then at the daily dose of 60 mg/kg starting on treatment Day 1. All mice were then sacrificed at 9 weeks of age. Blood samples were collected from all mice and the liver from each mouse was removed for analysis.
(§2) Assessment of Steatohepatitis: Liver cross-sections were subjected to hematoxylin and eosin (H&E) staining using standard techniques for histological assessment of hepatic steatosis, lobular inflammation and hepatocellular ballooning. The level of steatohepatitis severity in each liver cross-section was indicated by NAFLD Activity Scores of: 0 (normal), 1-2 (NAFLD), 3-4 (borderline) or at least 5 (NASH) in 3 randomly selected fields of H&E-stained liver cross-sections of 4 μm thickness at ×50 magnification for evaluation of steatosis and ×200 magnification each for evaluation of inflammation and evaluation of ballooning. The NAFLD Activity Score is the unweighted sum of the following: 1) hepatic steatosis score (0-3); 2) lobular inflammation score ([…]); 3) hepatocellular ballooning score (0-2).
(§3) For quantitative analysis of fibrosis area, bright field images of Sirius red-stained sections were captured around the central vein using a digital camera (DFC295; Leica, Germany) at 200-fold magnification, and the positive areas in 5 fields/section were measured using ImageJ software (National Institute of Health, USA).
(§4) Values are arithmetic means. Comparison between the study group and positive control group was performed using a two-tailed, heteroscedastic (two-sample unequal variance) Student's T-Test. A P-value of <0.05 was considered statistically significant following a Bonferroni post-hoc statistical correction analysis for multiple groups (Bonferroni Multiple Comparison Test). In this case, the correction factor was 12, corresponding to the number of study groups. Following the usual convention, the P-value classification and statistical significance levels chosen are shown in Table 2 alongside their corresponding classification scores.

[2] = test system: murine STAM™ model of NASH-HCC; assay: Murine STAM model of NASH-HCC, second study (Example 2): H&E NAFLD activity scoring and Sirius red fibrosis area; type: in vivo, C57BL/6 mice; conditions: for NAFLD Activity Scores, hepatic steatosis, lobular inflammation and hepatocellular ballooning (conclusion): Bromantane at 40 mg/kg, Cenicriviroc at 30 mg/kg
Experimental: As before, male newborn C57BL/6 mice were used. All mice were born from pathogen-free 14 day-pregnant mice obtained from Japan SLC, Inc. (Hamamatsu, Japan) prior to the start of the study.
as §1
Following induction of NASH, the mice were randomized into 7 individual study groups of 8 mice each at 6 weeks of age (day 42±2) based on their body weight, the day before the start of treatment.
One day following randomization, the mice were administered a once-daily oral treatment from 6 weeks of age plus one day (day 43±2, treatment Day 1) to 9 weeks of age. The mice in 6 of the 7 study groups were treated individually with a therapeutic amount of a pharmacologic compound formulated with a pharmaceutically acceptable vehicle. […] The pharmaceutically acceptable vehicle in all groups was 0.5% CMC. […] Individual body weight was measured daily during the treatment period. Survival, clinical signs and behavior of mice were also monitored daily.
In each case, a volume of 10 mL/kg of 0.5% CMC was administered orally with (or without) the active ingredient as noted in Table 3 from 6 to 9 weeks of age. All mice were then sacrificed at 9 weeks of age. Blood samples were collected from all mice and the liver from each mouse was removed for analysis.
as §2
as §3, with “The liver cross-sections of the treated groups were also subjected to Sirius-red staining using standard techniques for histological estimation of the percentage of fibrosis area. For” for “For”
as §4, with “7,” for “12,”, “2 (above)” for “2”

[3] = once daily oral, 6 to 9 weeks of age, Bromantane high 40 mg/kg, Bemithyl 200 mg/kg, Cenicriviroc 30 mg/kg, Telmisartan 10 mg/kg
[4] = once daily oral, 6 to 9 weeks of age, Bromantane high 40 mg/kg, Cenicriviroc 30 mg/kg, Bemithyl 200 mg/kg, Telmisartan 10 mg/kg

Row | SMILES | hepatocellular ballooning score relative to Vehicle control [1] | NAFLD Activity Scores, hepatic steatosis, lobular inflammation and hepatocellular ballooning (conclusion) [2] | fibrosis area (Sirius red-positive area) compared with the Vehicle group [2, 3] | NAFLD activity score relative to Vehicle control [2, 4] | NAFLD activity score relative to Vehicle control [1] | fibrosis area (Sirius red-positive area) compared with the Vehicle group [1] | steatosis score relative to Vehicle control ([2]; once daily oral, 6 to 9 weeks of age, Bromantane high 40 mg/kg, Telmisartan 10 mg/kg) | fibrosis area (Sirius red-positive area) compared with the Vehicle group ([2]; once daily oral, 6 to 9 weeks of age, Bromantane low 20 mg/kg) | NAFLD Activity Scores, hepatic steatosis, lobular inflammation and hepatocellular ballooning (conclusion) ([1]; Istradefylline at 18 mg/kg, Telmisartan at 10 mg/kg oral, compared to the Vehicle group)
1 | Nc1nc(N)nc(-c2cc(Cl)ccc2Cl)n1 [Irsogladine, 6-(2,5-Dichlorophenyl)-1,3,5-triazine-2,4-diamine] | Statistically significant reductions | – | – | – | – | – | – | – | –
2 | CCCCOCCOc1ccc(-c2ccc3c(c2)/C=C(/C(=O)Nc2ccc([S@@+]([O-])Cc4cncn4CCC)cc2)CCCN3CC(C)C)cc1 [Cenicriviroc] | – | showed improvement | statistically significant decreases | Statistically significant reductions | – | – | – | – | –
3 | CCSc1nc2ccccc2[nH]1 [Bemithyl, 2-Ethylsulfanyl-1H-benzoimidazole] | – | – | particularly statistically significant decrease | statistically significant and clinically relevant composite reduction | – | – | – | – | –
4 | Brc1ccc(NC2C3CC4CC(C3)CC2C4)cc1 (stereo not drawn) [Bromantane, N-(4-Bromophenyl)adamantan-2-amine] | Statistically significant reductions | showed improvement | statistically significant decreases | Statistically significant reductions | Statistically significant reductions | significant decreases | Statistically significant reductions | statistically significant decreases | –
5 | CCn1c(=O)c2c(nc(/C=C/c3ccc(OC)c(OC)c3)n2C)n(CC)c1=O [Istradefylline, 8-[(E)-2-(3,4-dimethoxyphenyl)vinyl]-1,3-diethyl-7-methyl-3,7-dihydro-1H-purine-2,6-dione] | Statistically significant reductions | – | – | – | Statistically significant reductions | significant decreases | – | – | showed improvement
